Earlier results, collected in US11564888B2, “Extended release compositions comprising trihexyphenidyl” (KASHIV SPECIALTY PHARMACEUTICALS, LLC, priority 2018, dated 2023).

Settings: in vivo

- plasma half-life: about 3.7 hours
SMILES: OC(CCN1CCCCC1)(c1ccccc1)C1CCCCC1 (stereo not drawn) [trihexyphenidyl, α-cyclohexyl-α-phenyl-1-piperidinepropanol]
